Literature values, collected in US12052992B2, “Insecticidal composition” (CLARKE MOSQUITO CONTROL PRODUCTS, INC., priority 2017, dated 2024).

Conditions: comparison value for water

Structure (SMILES): O [water]
- evaporation rate λ: 62.40 μm^2 s^−1° C.^−1
